From PubChem BioAssay AID200 (DTP/NCI, 2004) come the findings set out here.

The experiment has as its system B6C3F1 mice, B16 melanoma ip, median survival T/C. The experiment in a line: NCI In Vivo Anticancer Drug Screen. Data for tumor model B16 Melanoma (intraperitoneal) in B6C3F1 mice. The note with it: endpoint: median survival time, higher = longer survival. The procedure, abridged:
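Readout: survival or tumor size in treated mice relative to vehicle controls (T/C). Model uses transplantable tumors grown in mice.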

The mark [1] stands for this setting: dose: 6.25 mg/kg/injection, schedule: Q01DX009 (ip), vehicle: saline with Tween-80.
Where [2] appears, read: dose: 12.5 mg/kg/injection, schedule: Q01DX009 (ip), vehicle: Klucel (hydroxypropylcellulose) (HPC).
Setting [3] is: dose: 12.5 mg/kg/injection, schedule: Q01DX009 (ip), vehicle: saline with Tween-80.
Setting [4] is: dose: 25.0 mg/kg/injection, schedule: Q01DX009 (ip), vehicle: Klucel (hydroxypropylcellulose) (HPC).
The mark [5] stands for this setting: dose: 25.0 mg/kg/injection, schedule: Q01DX009 (ip), vehicle: saline with Tween-80.
[6] abbreviates: dose: 50.0 mg/kg/injection, schedule: Q01DX009 (ip), vehicle: Klucel (hydroxypropylcellulose) (HPC).
The mark [7] stands for this setting: dose: 50.0 mg/kg/injection, schedule: Q01DX009 (ip), vehicle: saline with Tween-80.
Setting [8] is: dose: 100.0 mg/kg/injection, schedule: Q01DX009 (ip), vehicle: Klucel (hydroxypropylcellulose) (HPC).
The mark [9] stands for this setting: dose: 100.0 mg/kg/injection, schedule: Q01DX009 (ip), vehicle: saline with Tween-80.
The mark [10] stands for this setting: dose: 200.0 mg/kg/injection, schedule: Q01DX009 (ip), vehicle: Klucel (hydroxypropylcellulose) (HPC).
Where [11] appears, read: dose: 200.0 mg/kg/injection, schedule: Q01DX009 (ip), vehicle: saline with Tween-80.

“And” between values parts separate entries of the source, which are not always exact repeats. Equal values may be shown once. Inconclusive results and toxic doses are left out.

As to `COc1cc(O)c2c(O)c3c(c4c2c1[C@]1(C4)C(C)=CCCC1(C)C)[C@H](O)[C@@]1(O)CC(=O)C(C(N)=O)=C(O)[C@@]1(O)C3=O`, the T/C (dose: 1.56 mg/kg/injection, schedule: Q01DX009 (ip), vehicle: saline with Tween-80) is 90 % of control; the T/C (dose: 3.12 mg/kg/injection, schedule: Q01DX009 (ip), vehicle: saline with Tween-80) is 106 % of control; the T/C under setting [1] was 117 % of control.

On to `CCC1OCCN1C(C)C` (centres undefined), for which the T/C was 107 % of control (dose: 25.0 mg/kg/injection, schedule: Q01DX009 (ip), vehicle: saline); 107 % of control (dose: 50.0 mg/kg/injection, schedule: Q01DX009 (ip), vehicle: saline); 98 % of control (dose: 100.0 mg/kg/injection, schedule: Q01DX009 (ip), vehicle: saline).

For the molecule `S=C(Nc1ccc(Cl)c(Cl)c1)N1c2ccccc2-n2cccc2C1c1cccnc1` (centres undefined), the T/C is 90 % of control and 98 % of control and 102 % of control under setting [2]; 99 % of control under setting [3]; 91 % of control and 94 % of control and 98 % of control under setting [4]; 102 % of control under setting [5]; 90 % of control and 104 % of control and 107 % of control under setting [6]; 99 % of control under setting [7]. Moreover, the T/C by setting is: under setting [8], 88 % of control and 91 % of control and 97 % of control; under setting [9], 107 % of control; under setting [10], 114 % of control and 90 % of control (2×); under setting [11], 102 % of control; (dose: 400.0 mg/kg/injection, schedule: Q01DX009 (ip), vehicle: Klucel (hydroxypropylcellulose) (HPC)) 91 % of control.

With `COc1cc2cc(c1Cl)N1CCC(C)(O)C(=O)NC(C)C(=O)OC(CC1=O)C1(C)OC1C(C)C1CC(O)(NC(=O)O1)C(OC)/C=C\C=C(\C)C2OC` (centres undefined), the T/C is 160 % of control (dose: 8.0 micrograms/kg/injection, schedule: Q01DX009 (ip), vehicle: distilled water + alcohol); 162 % of control (dose: 16.0 micrograms/kg/injection, schedule: Q01DX009 (ip), vehicle: distilled water + alcohol); 178 % of control (dose: 32.0 micrograms/kg/injection, schedule: Q01DX009 (ip), vehicle: distilled water + alcohol).

As for `Nc1nc2ccc(NCc3ccc(C(=O)NC(CCC(=O)O)C(=O)O)cc3)cc2c(=O)[nH]1` (centres undefined), the T/C reads like this: under setting [1], 88 % of control; under setting [3], 91 % of control; under setting [5], 97 % of control; under setting [7], 91 % of control; under setting [9], 93 % of control.

On to `COc1cc(C2c3cc4c(cc3C(O)C(CO)C2CO)OCO4)cc(OC)c1OC` (centres undefined), for which the T/C was 111 % of control and 113 % of control under setting [3]; 113 % of control under setting [5].

Turning to `COc1cc2c(cc1O)C1CC(CC3CCCCN31)OC(=O)/C=C\c1ccc(O)c-2c1` (centres undefined), the T/C was 101 % of control (dose: 15.0 mg/kg/injection, schedule: Q01DX009 (ip), vehicle: saline); 104 % of control (dose: 30.0 mg/kg/injection, schedule: Q01DX009 (ip), vehicle: saline); 114 % of control (dose: 60.0 mg/kg/injection, schedule: Q01DX009 (ip), vehicle: saline); 102 % of control (dose: 120.0 mg/kg/injection, schedule: Q01DX009 (ip), vehicle: saline).

Take `O=C1CN(CN2CCOCC2)C(=O)CN1CN1CCOCC1`: the T/C is 88 % of control under setting [3]; 94 % of control under setting [5]; 93 % of control under setting [7]; 102 % of control under setting [9]; 100 % of control under setting [11].

Consider `Nc1nc(N)c(N=O)c(Nc2ccc(I)cc2)n1`, for which the T/C was 115 % of control under setting [7], 110 % of control under setting [9] and 98 % of control under setting [11].

In the case of `CS(=O)(=O)OCCN(CCOS(C)(=O)=O)c1ccc(C=Nc2ccc(-c3csc(COc4ccccc4)n3)cc2)cc1`, the T/C runs as follows: under setting [2], 114 % of control; under setting [6], 162 % of control.

`COC(=O)Nc1ccc(Cc2ccc(NC(=O)OC)cc2)cc1`: the T/C is, setting by setting: under setting [1], 98 % of control; under setting [3], 99 % of control; under setting [5], 109 % of control and 98 % of control; under setting [7], 109 % of control; under setting [9], 150 % of control.

On to `N[C@@H](Cc1ccc(O)c(O)c1)C(=O)O`, for which the T/C by setting is: (dose: 50.0 mg/kg/injection, schedule: Q01DX009 (ip), vehicle: suspension in saline) 94 % of control; (dose: 100.0 mg/kg/injection, schedule: Q01DX009 (ip), vehicle: suspension in saline) 110 % of control; (dose: 200.0 mg/kg/injection, schedule: Q01DX009 (ip), vehicle: suspension in saline) 100 % of control; (dose: 400.0 mg/kg/injection, schedule: Q01DX009 (ip), vehicle: suspension in saline) 101 % of control and 104 % of control; (dose: 800.0 mg/kg/injection, schedule: Q01DX009 (ip), vehicle: suspension in saline) 93 % of control and 105 % of control; (dose: 1200.0 mg/kg/injection, schedule: Q01DX009 (ip), vehicle: suspension in saline) 97 % of control. Further, under “dose: 1600.0 mg/kg/injection, schedule: Q01DX009 (ip), vehicle: suspension in saline”, the T/C was 100 % of control.

As to `CCc1cccc(CC)c1-n1c(C)ccc1-c1ccccc1`, the T/C runs as follows: under setting [7], 100 % of control; under setting [9], 107 % of control.

Take `COC1=CC(=O)c2c(O)cc(OC)cc2C1=O`: the T/C was 105 % of control (dose: 1.25 mg/kg/injection, schedule: Q01DX009 (ip), vehicle: saline with Tween-80); 105 % of control (dose: 2.5 mg/kg/injection, schedule: Q01DX009 (ip), vehicle: saline with Tween-80); 121 % of control (dose: 5.0 mg/kg/injection, schedule: Q01DX009 (ip), vehicle: saline with Tween-80); 109 % of control (dose: 10.0 mg/kg/injection, schedule: Q01DX009 (ip), vehicle: saline with Tween-80).

Consider `C/C=C(\C)c1cc(=O)c2c(C)cc3c(c2o1)C(=O)c1c(O)c(C2CC(C)(N(C)C)C(O)C(C)O2)cc(C2CC(N(C)C)C(O)C(C)O2)c1C3=O` (centres undefined), for which the T/C was 111 % of control (dose: 31.25 micrograms/kg/injection, schedule: Q01DX009 (ip), vehicle: saline); 114 % of control (dose: 62.5 micrograms/kg/injection, schedule: Q01DX009 (ip), vehicle: saline); 176 % of control (dose: 156.25 micrograms/kg/injection, schedule: Q01DX009 (ip), vehicle: saline); 93 % of control (dose: 1250.0 micrograms/kg/injection, schedule: Q01DX009 (ip), vehicle: saline).

With `C[C@H]1CCC/C=C/[C@@H]2C[C@H](O)C[C@H]2[C@H](O)/C=C/C(=O)O1`, the T/C is, setting by setting: under setting [2], 89 % of control; under setting [4], 91 % of control; under setting [6], 91 % of control.

Regarding `CC(=O)Oc1[nH]c(=O)c2cccc3c2c1CCC3`, where the note is “dose: 400.0 mg/kg/injection, schedule: Q01DX009 (ip), vehicle: saline with Tween-80”, the T/C is 120 % of control.

For `Oc1c(Cl)cc(C(c2cc(Cl)c(O)c(Cl)c2)C(c2cc(Cl)c(O)c(Cl)c2)c2cc(Cl)c(O)c(Cl)c2)cc1Cl`, the T/C under setting [2] is 88 % of control and 100 % of control; the T/C under setting [4] is 92 % of control and 99 % of control; the T/C under setting [6] was 93 % of control and 101 % of control; the T/C under setting [8] is 93 % of control and 101 % of control; the T/C under setting [10] is 104 % of control.

As for `CCCCCCCCCCCCCCCCC(C(=O)O)C(O)(CC(=O)O)C(=O)O` (centres undefined), the T/C is, setting by setting: (dose: 8.75 mg/kg/injection, schedule: Q01DX009 (ip), vehicle: Klucel (hydroxypropylcellulose) (HPC)) 95 % of control; (dose: 17.5 mg/kg/injection, schedule: Q01DX009 (ip), vehicle: Klucel (hydroxypropylcellulose) (HPC)) 91 % of control; (dose: 35.0 mg/kg/injection, schedule: Q01DX009 (ip), vehicle: Klucel (hydroxypropylcellulose) (HPC)) 100 % of control; (dose: 70.0 mg/kg/injection, schedule: Q01DX009 (ip), vehicle: Klucel (hydroxypropylcellulose) (HPC)) 93 % of control.

Consider `CC(C)CC(NC(=O)C(O)C(N)Cc1ccccc1)C(=O)O` (centres undefined), for which the T/C was 99 % of control (dose: 10.0 micrograms/kg/injection, schedule: Q01DX005 (ip), vehicle: saline); 100 % of control (dose: 10.0 micrograms/kg/injection, schedule: Q01DX005 (oral), vehicle: saline); 101 % of control (dose: 10.0 micrograms/mouse/injection, schedule: Q01DX006 (ip), vehicle: saline); 95 % of control (dose: 20.0 micrograms/mouse/injection, schedule: Q01DX006 (oral), vehicle: saline); 96 % of control (dose: 100.0 micrograms/kg/injection, schedule: Q01DX005 (ip), vehicle: saline); 98 % of control (dose: 100.0 micrograms/kg/injection, schedule: Q01DX005 (oral), vehicle: saline). Further, the T/C reads like this: (dose: 100.0 micrograms/mouse/injection, schedule: Q01DX006 (ip), vehicle: saline) 108 % of control; (dose: 200.0 micrograms/mouse/injection, schedule: Q01DX006 (oral), vehicle: saline) 102 % of control.
